Converted amounts (≈) assume the structure as drawn. Bounds are passed on as bounds.

Data set [1] in a line: Kinetic solubility of the compound in HCl at pH 2 after 20 hrs by shake flask method. The class given is physicochemical. Conditions: read-out: Kinetic_solubility.
Data set [2] in a line: Kinetic solubility of the compound in phosphate buffered saline at pH 6.5 after 20 hrs by shake flask method. Format: physicochemical. Particulars: read-out: Kinetic_solubility.
Data set [3] is described as follows: Kinetic solubility of the compound in FaSSIF at pH 6.5 after 20 hrs by shake flask method. Format: physicochemical. Conditions: read-out: Kinetic_solubility.
Data set [4] is described as follows: Drug metabolism in iv or po dosed Sprague-Dawley rat plasma assessed as oxidation of pyridine ring by LC-MS/MS method. Format: ADME, organism-based. Particulars: in vivo.
Data set [5] is described as follows: Drug metabolism in iv or po dosed Sprague-Dawley rat plasma assessed as oxidation of phenyl ring by LC-MS/MS method. Format: ADME, organism-based. Conditions: in vivo.

As for `Fc1ccc(-c2nc3cnc(Nc4cc(C(F)(F)F)ccn4)cc3[nH]2)cc1F`, the solubility kinetic at 20 h in data set [1] is below 5 µM; in data set [2], below 5 µM; in data set [3] it was 50 to 100 µM (≈ 19.6 to 39.1 µg/mL).
Consider `CNC(=O)c1ccc(Nc2cc3[nH]c(-c4ccc(C(F)(F)F)nc4)nc3cn2)nc1`, for which the solubility kinetic at 20 h in data set [1] was 170 µM (≈ 70.3 µg/mL); in data set [2], below 5 µM; in data set [3], below 5 µM.
For `Fc1ccc(-c2nc3cnc(Nc4ccc(C(F)(F)F)cn4)cc3[nH]2)cc1F`, the solubility kinetic at 20 h was 6 µM (≈ 2.35 µg/mL) in data set [1], below 5 µM in data set [2] and 50 to 100 µM (≈ 19.6 to 39.1 µg/mL) in data set [3].
Turning to `CC1(c2nc3cnc(Nc4ccc(C(F)(F)F)cn4)cc3[nH]2)CC1`, the figures for the solubility kinetic at 20 h in data set [1], in data set [2] and in data set [3] were 200 µM (≈ 66.7 µg/mL), 188 µM (≈ 62.7 µg/mL) and 179 µM (≈ 59.7 µg/mL), respectively.
As for `FC(F)(F)c1cccc(-c2nc3cnc(Nc4ncccn4)cc3[nH]2)c1`, the solubility kinetic at 20 h in data set [1] was 155 µM (≈ 55.2 µg/mL); in data set [2], below 5 µM.
In the case of `Fc1ccc(-c2nc3cnc(Nc4ccccn4)cc3[nH]2)cc1F`, the solubility kinetic at 20 h in data set [1] was 125 µM (≈ 40.4 µg/mL); in data set [2], below 5 µM; in data set [3], 50 to 100 µM (≈ 16.2 to 32.3 µg/mL).
In the same order, the values of `COC(=O)c1ccc(Nc2cc3[nH]c(-c4ccc(C(F)(F)F)nc4)nc3cn2)nc1` are 182 µM (≈ 75.4 µg/mL), 12 µM (≈ 4.97 µg/mL) and 16 µM (≈ 6.63 µg/mL).
As for `Fc1cnc(Nc2cc3[nH]c(-c4cccc(C(F)(F)F)c4)nc3cn2)c(F)c1`, the solubility kinetic at 20 h in data set [1] was below 5 µM; in data set [2], below 5 µM; in data set [3] it was 50 to 100 µM (≈ 19.6 to 39.1 µg/mL).
With `FC(F)(F)c1cccc(-c2nc3cnc(Nc4ccc(N5CCOCC5)cn4)cc3[nH]2)c1`, the solubility kinetic at 20 h in data set [1] was 87 µM (≈ 38.3 µg/mL); in data set [2], below 5 µM; in data set [3], 35 µM (≈ 15.4 µg/mL).
Consider `O=C(c1ccc(Nc2cc3[nH]c(-c4ccc(C(F)(F)F)nc4)nc3cn2)nc1)N1CCOCC1`, for which the solubility kinetic at 20 h in data set [1] stood at 200 µM (≈ 93.9 µg/mL); in data set [2] it was 33 µM (≈ 15.5 µg/mL); in data set [3], 58 µM (≈ 27.2 µg/mL).
As to `FC(F)(F)c1cccc(-c2nc3cnc(Nc4cnccn4)cc3[nH]2)c1`, the solubility kinetic at 20 h in data set [1] is 155 µM (≈ 55.2 µg/mL); in data set [2], below 5 µM.
Regarding `Fc1ccc(Nc2cc3[nH]c(-c4cccc(C(F)(F)F)c4)nc3cn2)nc1`, the solubility kinetic at 20 h was below 5 µM in data set [1], below 5 µM in data set [2] and 50 to 100 µM (≈ 18.7 to 37.3 µg/mL) in data set [3].
For `O=C(O)c1ccc(Nc2cc3[nH]c(-c4ccc(C(F)(F)F)nc4)nc3cn2)nc1`, the solubility kinetic at 20 h was 8 µM (≈ 3.2 µg/mL) in data set [1], below 5 µM in data set [2] and below 5 µM in data set [3].
With `FC(F)(F)c1ccc(-c2nc3cnc(Nc4ccccn4)cc3[nH]2)cn1`, the figures for the solubility kinetic at 20 h in data set [1], in data set [2] and in data set [3] were 180 µM (≈ 64.1 µg/mL), below 5 µM and 50 to 100 µM (≈ 17.8 to 35.6 µg/mL), respectively.
For `FC(F)(F)c1ccc(Nc2cc3[nH]c(C4CC4)nc3cn2)nc1` the same measures were 198 µM (≈ 63.2 µg/mL), below 5 µM and 123 µM (≈ 39.3 µg/mL).
`FC(F)(F)c1cccc(-c2nc3cnc(Nc4cccnn4)cc3[nH]2)c1`: the solubility kinetic at 20 h in data set [1] was 161 µM (≈ 57.4 µg/mL); in data set [2], below 5 µM.
For the compound `O=C(NC1CC1)c1ccc(Nc2cc3[nH]c(-c4ccc(C(F)(F)F)nc4)nc3cn2)nc1`, the solubility kinetic at 20 h is 99 µM (≈ 43.5 µg/mL) in data set [1], below 5 µM in data set [2] and below 5 µM in data set [3].
On to `O=C(O)c1ccnc(Nc2cc3[nH]c(-c4cccc(C(F)(F)F)c4)nc3cn2)c1`, for which the solubility kinetic at 20 h in data set [1] was below 5 µM; in data set [2] it was below 5 µM; in data set [3], 60 µM (≈ 24 µg/mL).
As for `Fc1ccc(-c2nc3cnc(Nc4ccccn4)cc3[nH]2)cc1C(F)(F)F`, the solubility kinetic at 20 h in data set [1] is 7 µM (≈ 2.61 µg/mL); in data set [2] it was below 5 µM; in data set [3], 50 to 100 µM (≈ 18.7 to 37.3 µg/mL).
In the case of `COc1ccnc(Nc2cc3[nH]c(-c4cccc(C(F)(F)F)c4)nc3cn2)c1`, the solubility kinetic at 20 h in data set [1] and in data set [2] was below 5 µM in each case.
Regarding `NC(=O)c1ccc(Nc2cc3[nH]c(-c4cccc(C(F)(F)F)c4)nc3cn2)nc1`, the solubility kinetic at 20 h in data set [1], in data set [2] and in data set [3] was below 5 µM in each case.
`O=C(c1ccc(Nc2cc3[nH]c(-c4ccc(C(F)(F)F)nc4)nc3cn2)nc1)N1CCCC1`: the solubility kinetic at 20 h was 196 µM (≈ 88.9 µg/mL) in data set [1], below 5 µM in data set [2] and below 5 µM in data set [3].
In the case of `FC(F)(F)c1ccc(Nc2cc3[nH]c(CC4CC4)nc3cn2)nc1`, the solubility kinetic at 20 h in data set [1] was determined as 186 µM (≈ 62 µg/mL); in data set [2], 118 µM (≈ 39.3 µg/mL); in data set [3], 156 µM (≈ 52 µg/mL).
With `FC(F)(F)Oc1ccc(-c2nc3cnc(Nc4ccccn4)cc3[nH]2)cc1`, the solubility kinetic at 20 h in data set [1] is 26 µM (≈ 9.65 µg/mL); in data set [2], below 5 µM.
Consider `N#Cc1ccc(Nc2cc3[nH]c(-c4cccc(C(F)(F)F)c4)nc3cn2)nc1`, for which the solubility kinetic at 20 h in data set [1] is below 5 µM; in data set [2] it was below 5 µM; in data set [3] it was 50 to 100 µM (≈ 19 to 38 µg/mL).
With `FC(F)(F)c1ccc(Nc2cc3[nH]c([C@H]4CC[C@H](C(F)(F)F)CC4)nc3cn2)nc1`, the solubility kinetic at 20 h was 200 µM (≈ 85.9 µg/mL) in data set [1], below 5 µM in data set [2] and 104 µM (≈ 44.7 µg/mL) in data set [3].
For `FC(F)(F)c1ccc(Nc2cc3[nH]c(C4CCOC4)nc3cn2)nc1` (configuration not stated) the same measures were 200 µM (≈ 69.9 µg/mL), 166 µM (≈ 58 µg/mL) and 180 µM (≈ 62.9 µg/mL).
Consider `O=C(O)c1ccnc(Nc2cc3[nH]c(-c4ccc(C(F)(F)F)nc4)nc3cn2)c1`, for which the solubility kinetic at 20 h in data set [1], in data set [2] and in data set [3] was below 5 µM each time.
As for `O=C(c1ccc(Nc2cc3[nH]c(-c4ccc(C(F)(F)F)nc4)nc3cn2)nc1)N1CCNCC1`, the solubility kinetic at 20 h amounted to 200 µM (≈ 93.7 µg/mL) in data set [1], 168 µM (≈ 78.7 µg/mL) in data set [2] and 161 µM (≈ 75.4 µg/mL) in data set [3].
For the compound `FC(F)(F)c1cccc(-c2nc3cnc(Nc4ccncn4)cc3[nH]2)c1`, the solubility kinetic at 20 h was 200 µM (≈ 71.3 µg/mL) in data set [1] and below 5 µM in data set [2].
Take `O=C(O)c1ccc(Nc2cc3[nH]c(-c4ccc(F)c(F)c4)nc3cn2)nc1`: the solubility kinetic at 20 h in data set [1] stood at 11 µM (≈ 4.04 µg/mL); in data set [2] it was 7 µM (≈ 2.57 µg/mL); in data set [3] it was 9 µM (≈ 3.31 µg/mL).
As for `CN1CCN(c2ccc(Nc3cc4[nH]c(-c5cccc(C(F)(F)F)c5)nc4cn3)nc2)CC1`, the solubility kinetic at 20 h in data set [1] was 190 µM (≈ 86.2 µg/mL); in data set [3] it was below 5 µM.
For `FC(F)(F)c1ccc(Nc2cc3[nH]c(-c4cccc(C(F)(F)F)c4)nc3cn2)nc1`, the results for the solubility kinetic at 20 h in data set [1], in data set [2] and in data set [3] were below 5 µM, below 5 µM and 50 to 100 µM (≈ 21.2 to 42.3 µg/mL), respectively. Moreover, the Drug metabolism entry in data set [4] is “Metabolite_Detected”; in data set [5] it was “Metabolite_Notdetected”.
Take `O=C(O)c1ccc(Nc2cc3[nH]c(-c4cccc(C(F)(F)F)c4)nc3cn2)nc1`: the solubility kinetic at 20 h in data set [1] was below 5 µM; in data set [2], 6 µM (≈ 2.4 µg/mL); in data set [3] it was 6 µM (≈ 2.4 µg/mL).
With `FC(F)(F)c1cccc(-c2nc3cnc(Nc4cccc(C(F)(F)F)n4)cc3[nH]2)c1`, the solubility kinetic at 20 h in data set [1] was 51 µM (≈ 21.6 µg/mL); in data set [2], below 5 µM; in data set [3], 50 to 100 µM (≈ 21.2 to 42.3 µg/mL).
Take `FC(F)(F)c1cccc(-c2nc3cnc(Nc4ccncc4)cc3[nH]2)c1`: the solubility kinetic at 20 h in data set [1] came to 200 µM (≈ 71.1 µg/mL); in data set [2] it was 10 µM (≈ 3.55 µg/mL).
Regarding `Fc1ccc(Nc2cc3[nH]c(C4CCC(F)(F)CC4)nc3cn2)nc1`, the solubility kinetic at 20 h is 200 µM (≈ 69.5 µg/mL) in data set [1], 170 µM (≈ 59 µg/mL) in data set [2] and 170 µM (≈ 59 µg/mL) in data set [3].
As to `CCOC(=O)c1ccc(Nc2cc3[nH]c(-c4ccc(C(F)(F)F)nc4)nc3cn2)nc1`, the solubility kinetic at 20 h in data set [1] is 164 µM (≈ 70.3 µg/mL); in data set [2], below 5 µM; in data set [3], 127 µM (≈ 54.4 µg/mL).
In the case of `COc1cccnc1Nc1cc2[nH]c(-c3cccc(C(F)(F)F)c3)nc2cn1`, the values for the solubility kinetic at 20 h in data set [1] and in data set [2] were 116 µM (≈ 44.7 µg/mL) and below 5 µM, respectively.
As for `COc1cccc(Nc2cc3[nH]c(-c4cccc(C(F)(F)F)c4)nc3cn2)n1`, the results for the solubility kinetic at 20 h in data set [1] and in data set [2] were 85 µM (≈ 32.8 µg/mL) and below 5 µM, respectively.
Turning to `FC1(F)CC(c2nc3cnc(Nc4ccc(C(F)(F)F)cn4)cc3[nH]2)C1`, the solubility kinetic at 20 h in data set [1] stood at 181 µM (≈ 66.8 µg/mL); in data set [2], 118 µM (≈ 43.6 µg/mL); in data set [3] it was 161 µM (≈ 59.5 µg/mL).
For `FC(F)(F)c1cccc(-c2nc3cnc(Nc4cc(-c5nnn[nH]5)ccn4)cc3[nH]2)c1`, the solubility kinetic at 20 h in data set [1], in data set [2] and in data set [3] was below 5 µM each time.
As for `FC1(F)CCC(c2nc3cnc(Nc4ccc(C(F)(F)F)cn4)cc3[nH]2)C1` (configuration not stated), the solubility kinetic at 20 h was 185 µM (≈ 70.9 µg/mL) in data set [1], 120 µM (≈ 46 µg/mL) in data set [2] and 163 µM (≈ 62.5 µg/mL) in data set [3].
Consider `FC(F)(F)c1ccc(Nc2cc3[nH]c(C4CCOCC4)nc3cn2)nc1`, for which the results for the solubility kinetic at 20 h in data set [1], in data set [2] and in data set [3] were 196 µM (≈ 71.2 µg/mL), 155 µM (≈ 56.3 µg/mL) and 168 µM (≈ 61 µg/mL), respectively.
Consider `COc1ccc(Nc2cc3[nH]c(-c4cccc(C(F)(F)F)c4)nc3cn2)nc1`, for which the solubility kinetic at 20 h in data set [1] and in data set [2] was below 5 µM in each case.
Turning to `FC(F)(F)c1cccc(-c2nc3cnc(Nc4ccc(-c5nnn[nH]5)cn4)cc3[nH]2)c1`, the solubility kinetic at 20 h in data set [1], in data set [2] and in data set [3] was below 5 µM throughout.
Turning to `Fc1ccnc(Nc2cc3[nH]c(-c4ccc(F)c(F)c4)nc3cn2)c1`, the solubility kinetic at 20 h in data set [1] was 166 µM (≈ 56.7 µg/mL); in data set [2], below 5 µM; in data set [3], 50 to 100 µM (≈ 17.1 to 34.1 µg/mL).
